Data as given in patent US20260265274A1, “Cyclic Boronic Esters and Their Uses” (Principia Biopharma Inc., priority 2022, published 2026).

Columns and labels:
Format in all cases: physicochemical
[1] = Stability in SGF (Simulated Gastric Fluid), ester content by UPLC; conditions: SGF pH 1.2, 10 mg/mL in ACN diluted to 0.5 mg/mL
Protocol: (§1) The diluted solution was then analyzed for ester content by UPLC.
(§2) The same set of experiments were performed for the pinacol and pinanediol esters of Boronic Acid 1 except that additional ACN was added when diluting into SIF in order to maintain the compounds in solution (final ACN concentration of 20%-30% in diluted solutions in SIF).

[2] = Stability in SIF (Simulated Intestinal Fluid), ester content by UPLC; conditions: SIF pH 6.8, 10 mg/mL in ACN diluted to 0.5 mg/mL, pinacol and pinanediol esters with 20%-30% final ACN
Protocol: as §1, §2

[3] = Open dish stability study at 40° C./75% RH in open glass vials; conditions: for % Peak Area by UPLC, 2 weeks / % Peak Area by UPLC, Initial: 40° C./75% RH open; for Open dish stability, result in words: 40° C./75% RH, open glass vials

Row | Compound | Conversion of ester to Boronic Acid 1 in SGF [1] | Conversion of ester to Boronic Acid 1 in SIF [2] | % Peak Area by UPLC, 2 weeks [3] [%] | % Peak Area by UPLC, Initial [3] [%] | Open dish stability, result in words [3]
1 | C[C@@H]1CN(C(C)(C)C=C(C#N)C(=O)N2CCCC[C@@H](OC(=O)N[C@@H](Cc3ccccc3)B3OC(C)(C)C(C)(C)O3)C2)CCO1 [Pinacol ester of Boronic Acid 1, (R)-1-(2-cyano-4-methyl-4-((R)-2-methylmorpholino)pent-2-enoyl)azepan-3-yl ((R)-2-phenyl-1-(4,4,5,5-tetramethyl-1,3,2-dioxaborolan-2-yl)ethyl)carbamate] | completely converted to Boronic Acid 1 immediately | completely converted to Boronic Acid 1 immediately | 70.9 | 95.5 | significantly degraded after two weeks
2 | C[C@@H]1CN(C(C)(C)/C=C(\C#N)C(=O)N2CCCC[C@@H](OC(=O)N[C@@H](Cc3ccccc3)B3O[C@@H]4C[C@@H]5C[C@@H](C5(C)C)[C@]4(C)O3)C2)CCO1 [Pinanediol ester of Boronic Acid 1] | only partially converted to Boronic Acid 1 | only partially converted to Boronic Acid 1 | 90.6 | 93.5 | significantly degraded after two weeks
3 | C[C@@H]1CN(C(C)(C)/C=C(\C#N)C(=O)N2CCCC[C@@H](OC(=O)N[C@@H](Cc3ccccc3)B(O)O)C2)CCO1 [Boronic Acid 1, ((R)-1-(((((R)-1-((E)-2-cyano-4-methyl-4-((R)-2-methylmorpholino)pent-2-enoyl)azepan-3-yl)oxy)carbonyl)amino)-2-phenylethyl)boronic acid] |  |  | 85.9 | 95.8 | significantly degraded after two weeks
